Laboratory results reported in article PMC10582335 (Frontiers in Pharmacology, 2023).
Like-named read-outs stand apart in the source and are kept apart here.

Columns and labels:
[1] = cited from earlier work
[2] = design: method as in Frost et al., 2015; settings: ref Frost et al., 2015, cited from earlier work
[3] = Stability in rat plasma under storage and processing conditions (QC samples, UPLC-MS/MS); settings: n = 6
Protocol: The stability of plasma samples was validated by the QC samples at three concentration levels in six replicates under various storage and processing conditions: autosampler for 24 h after preprocessing, room temperature for 8 h, −80°C for 30 days, and three freeze-thaw cycles (−80°C to room temperature). The samples were verified to be stable if the deviation of the samples was not more than ±15% of the standard concentration.

[4] = Freeze-thaw stability for three times, high QC (nominal 150 almonertinib, 800 apixaban, 1,500 rivaroxaban ng/mL)
[5] = Freeze-thaw stability for three times, low QC (nominal 1 almonertinib, 2 apixaban, 10 rivaroxaban ng/mL)
[6] = Freeze-thaw stability for three times, medium QC (nominal 80 almonertinib, 400 apixaban, 800 rivaroxaban ng/mL)
[7] = Room temperature for 8 h, high QC (nominal 150 almonertinib, 800 apixaban, 1,500 rivaroxaban ng/mL)
[8] = Room temperature for 8 h, low QC (nominal 1 almonertinib, 2 apixaban, 10 rivaroxaban ng/mL)
[9] = Room temperature for 8 h, medium QC (nominal 80 almonertinib, 400 apixaban, 800 rivaroxaban ng/mL)
[10] = −80°C for 30 days, high QC (nominal 150 almonertinib, 800 apixaban, 1,500 rivaroxaban ng/mL)
[11] = −80°C for 30 days, low QC (nominal 1 almonertinib, 2 apixaban, 10 rivaroxaban ng/mL)
[12] = −80°C for 30 days, medium QC (nominal 80 almonertinib, 400 apixaban, 800 rivaroxaban ng/mL)

COc1ccc(-n2nc(C(N)=O)c3c2C(=O)N(c2ccc(N4CCCCC4=O)cc2)CC3)cc1 [apixaban, Apixaban]
time of the maximal blood concentration after oral intake ([1]; (±1 h), each of two drugs, ref Steffel et al., 2021): 2 to 3 h | time to reach maximum plasma concentrations ([1]; after oral administration, ref Kubitza et al., 2005a, Kubitza et al., 2005b, Raghavan et al., 2009): 2 to 4 h | renal excretion as share of the total clearance ([1]; apixaban, ref Byon et al., 2019): approximately 27% | increase in exposure to apixaban ([2]; combined with diltiazem): 1.4 fold | increase in exposure to apixaban ([2]; combined with ketoconazole): 2.0 fold | Stability: Accuracy (RE%) [3, 4]: 0.04% | Stability: measured concentration, Mean ± SD [3, 4]: 800.33 ± 24.72 ng/mL | Stability: Accuracy (RE%) [3, 5]: −3.42% | Stability: measured concentration, Mean ± SD [3, 5]: 1.93 ± 0.13 ng/mL | Stability: Accuracy (RE%) [3, 6]: 2.67% | Stability: measured concentration, Mean ± SD [3, 6]: 410.67 ± 12.03 ng/mL | Stability: Accuracy (RE%) [3, 7]: 0.60% | Stability: measured concentration, Mean ± SD [3, 7]: 804.83 ± 20.23 ng/mL | Stability: Accuracy (RE%) [3, 8]: 3.83% | Stability: measured concentration, Mean ± SD [3, 8]: 2.08 ± 0.07 ng/mL | Stability: Accuracy (RE%) [3, 9]: 6.08% | Stability: measured concentration, Mean ± SD [3, 9]: 424.33 ± 9.35 ng/mL | Stability: Accuracy (RE%) [3, 10]: −2.15% | Stability: measured concentration, Mean ± SD [3, 10]: 782.83 ± 22.19 ng/mL | Stability: Accuracy (RE%) [3, 11]: 0.83% | Stability: measured concentration, Mean ± SD [3, 11]: 2.02 ± 0.08 ng/mL | Stability: Accuracy (RE%) [3, 12]: 0.13% | Stability: measured concentration, Mean ± SD [3, 12]: 400.50 ± 19.99 ng/mL
